Source: ChEMBL document CHEMBL1147185, “Comparative rates of sialylation by recombinant trans-sialidase and inhibitor properties of synthetic oligosaccharides from Trypanosoma cruzi mucins-containing galactofuranose and galactopyranose” (Bioorg Med Chem, 2007)

test: Inhibition of Trypanosoma cruzi trans-sialidase after 15 mins

| Compound | IC50 [µM] |
| --- | --- |
| O=C(CO)N[C@H]1[C@@H](OCc2ccccc2)O[C@H](CO)[C@@H](O[C@@H]2O[C@@H]([C@H](O)CO)[C@H](O)[C@H]2O[C@@H]2O[C@H](CO)[C@H](O)[C@H](O)[C@H]2O)[C@@H]1O | 1670 |
| O=C(COCc1ccccc1)N[C@H]1[C@@H](OCc2ccccc2)O[C@H](CO[C@@H]2O[C@H](CO)[C@H](O)[C@H](O)[C@H]2O)[C@@H](O[C@H]2O[C@H]([C@@H](O)CO)[C@@H](O)[C@@H]2O)[C@@H]1O | 860 |
| CC(=O)N[C@H]1[C@@H](OCc2ccccc2)O[C@H](CO[C@@H]2O[C@H](CO)[C@H](O)[C@H](O)[C@H]2O)[C@@H](O)[C@@H]1O | 2220 |
| OC[C@@H]1O[C@H](O[C@@H]2[C@H](O)[C@H](CO)O[C@H](OCc3ccccc3)[C@H]2O[C@@H]2O[C@H](CO)[C@H](O)[C@H](O)[C@H]2O)[C@@H](O)[C@H](O)[C@@H]1O | 1130 |
| O=C(COCc1ccccc1)N[C@H]1[C@@H](OCc2ccccc2)O[C@H](CO)[C@@H](O[C@@H]2O[C@@H]([C@H](O)CO)[C@H](O)[C@H]2O[C@@H]2O[C@H](CO)[C@H](O)[C@H](O)[C@H]2O)[C@@H]1O | 850 |
| CC(=O)N[C@H]1[C@@H](OCc2ccccc2)O[C@H](CO[C@@H]2O[C@H](CO)[C@H](O)[C@H](O)[C@H]2O)[C@@H](O[C@H]2O[C@H]([C@@H](O)CO)[C@@H](O)[C@@H]2O)[C@@H]1O | 1330 |
| O=C(COCc1ccccc1)N[C@H]1[C@@H](OCc2ccccc2)O[C@H](CO[C@@H]2O[C@H](CO)[C@H](O)[C@H](O)[C@H]2O)[C@@H](O)[C@@H]1O | 1110 |
| CC(=O)N[C@H]1[C@@H](OCc2ccccc2)O[C@H](CO)[C@@H](O[C@@H]2O[C@@H]([C@H](O)CO)[C@H](O)[C@H]2O[C@@H]2O[C@H](CO)[C@H](O)[C@H](O)[C@H]2O)[C@@H]1O | 4430 |
| O=C(COCc1ccccc1)N[C@H]1[C@H](OCc2ccccc2)O[C@@H](CO[C@@H]2O[C@H](CO)[C@H](O)[C@H](O[C@H]3O[C@@H](CO)[C@@H](O)[C@@H](O)[C@@H]3O)[C@H]2O[C@@H]2O[C@H](CO)[C@H](O)[C@H](O)[C@H]2O)[C@H](O[C@@H]2O[C@@H]([C@H](O)CO)[C@H](O)[C@H]2O)[C@H]1O | 700 |
| O=C(CO)N[C@H]1[C@@H](OCc2ccccc2)O[C@H](CO[C@@H]2O[C@H](CO)[C@H](O)[C@H](O)[C@H]2O)[C@@H](O)[C@@H]1O | 980 |

The remaining lines, values ahead:

| IC50 [µM] | Compound |
| --- | --- |
| 610 | O=C(CO)N[C@H]1[C@H](OCc2ccccc2)O[C@@H](CO[C@@H]2O[C@H](CO)[C@H](O)[C@H](O[C@H]3O[C@@H](CO)[C@@H](O)[C@@H](O)[C@@H]3O)[C@H]2O[C@@H]2O[C@H](CO)[C@H](O)[C@H](O)[C@H]2O)[C@H](O[C@@H]2O[C@@H]([C@H](O)CO)[C@H](O)[C@H]2O)[C@H]1O |
| 850 | CC(=O)N[C@H]1[C@H](OCc2ccccc2)O[C@@H](CO[C@@H]2O[C@H](CO)[C@H](O)[C@H](O[C@H]3O[C@@H](CO)[C@@H](O)[C@@H](O)[C@@H]3O)[C@H]2O[C@@H]2O[C@H](CO)[C@H](O)[C@H](O)[C@H]2O)[C@H](O[C@@H]2O[C@@H]([C@H](O)CO)[C@H](O)[C@H]2O)[C@H]1O |
| 940 | O=C(CO)N[C@H]1[C@@H](OCc2ccccc2)O[C@H](CO[C@@H]2O[C@H](CO)[C@H](O)[C@H](O)[C@H]2O)[C@@H](O[C@H]2O[C@H]([C@@H](O)CO)[C@@H](O)[C@@H]2O)[C@@H]1O |
| 1140 | O=C(COCc1ccccc1)N[C@H]1[C@H](OCc2ccccc2)O[C@@H](CO[C@H]2O[C@@H](CO)[C@@H](O)[C@@H](O[C@H]3O[C@@H](CO)[C@@H](O)[C@H](O)[C@@H]3O)[C@@H]2O)[C@H](O[C@@H]2O[C@@H]([C@H](O)CO)[C@H](O)[C@H]2O)[C@H]1O |
| 1260 | O=C(CO)N[C@H]1[C@H](OCc2ccccc2)O[C@@H](CO[C@H]2O[C@@H](CO)[C@@H](O)[C@@H](O[C@H]3O[C@@H](CO)[C@@H](O)[C@H](O)[C@@H]3O)[C@@H]2O)[C@H](O[C@@H]2O[C@@H]([C@H](O)CO)[C@H](O)[C@H]2O)[C@H]1O |
| 760 | CC(=O)N[C@H]1[C@H](OCc2ccccc2)O[C@@H](CO[C@H]2O[C@@H](CO)[C@@H](O)[C@@H](O[C@H]3O[C@@H](CO)[C@@H](O)[C@H](O)[C@@H]3O)[C@@H]2O)[C@H](O[C@@H]2O[C@@H]([C@H](O)CO)[C@H](O)[C@H]2O)[C@H]1O |
